Where a SMILES comes first, the peptide text is derived from it.
Test: Enzymatic (proteolytic) stability against trypsin
Assay type: in vitro ADME
Conditions: isolated enzyme trypsin; 800 U/mL trypsin, 0.1 M ammonium bicarbonate buffer pH 7.8, 37 °C, 6 h; 28 µg peptide in 100 µL; MALDI-TOF MS and C18 RP-HPLC; read-out: Peptide remaining intact after trypsin treatment
Description: To assess the proteolytic stability of β-gB1, it was treated with trypsin or pepsin for 6 h. […] Similarly, the S-alkylated β-gB1 was degraded completely by pepsin within 30 min. […] This is in agreement with other plant CRPs that contain a compact structure, whose proteolytic stability was examined up to six hours treatment.
The folded β-gB1 (28 µg) was added to 100 μL of a 0.1 M ammonium bicarbonate buffer (pH 7.8) containing 800 U/mL of trypsin or 4 mg/mL of pepsin and incubated at 37 °C for 6 h. At each time-point (0, 1, 2, 4, and 6 h), 20 µL of the treated sample was aliquoted and quenched by adding 5 µL of 1 M hydrochloric acid or 0.8 μL of 1 M sodium hydroxide. The reduced β-gB1 was alkylated with iodoacetamide (S-alkylated β-gB1) and used as a control in this study. The reaction mixture was analyzed by MALDI-TOF MS and C18-reversed-phase HPLC to determine its stability.

For `CC[C@H](C)[C@@H]1NC(=O)[C@@H]2CSSC[C@H](NC(=O)CNC(=O)[C@@H](NC(=O)[C@H](CCC(=O)O)NC(=O)[C@@H](N)Cc3ccc(O)cc3)[C@@H](C)O)C(=O)N[C@@H](CCCCN)C(=O)N[C@@H](CCCNC(=N)N)C(=O)N[C@H]3CSSC[C@@H](C(=O)O)NC(=O)[C@H](CSSC[C@H](NC3=O)C(=O)N[C@@H](Cc3ccc(O)cc3)C(=O)N[C@@H](CC(C)C)C(=O)N[C@@H](CC(=O)O)C(=O)N[C@@H](CCC(=O)O)C(=O)N[C@@H](Cc3ccc(O)cc3)C(=O)NCC(=O)N2)NC(=O)[C@H](CCCNC(=N)N)NC1=O` [β-gB1] (HELM PEPTIDE1{Y.E.T.G.C.K.R.C.C.Y.L.D.E.Y.G.C.I.R.C.C}$PEPTIDE1,PEPTIDE1,5:R3-16:R3|PEPTIDE1,PEPTIDE1,8:R3-20:R3|PEPTIDE1,PEPTIDE1,9:R3-19:R3$$$V2.0; N-terminus and C-terminus assumed), which remaining at 6 h is on record?
The remaining at 6 h was about 90%.

From article PMC6651024, “LIR Motif-Containing Hyperdisulfide β-Ginkgotide is Cytoprotective, Adaptogenic, and Scaffold-Ready” (Molecules, 2019)
